{
  "source": "paper PMC12664080",
  "about": "“Tetrazole-containing naphthalene bis-sulfonamide Keap1-Nrf2 interaction inhibitors with unexpected binding modes” (Redox Biology, 2025)",
  "key": {"[1]": {"biological_target": "T1, Keap1 Kelch domain (Homo sapiens, UniProt Q14145)", "T1 construct": "made in house", "T1 sequence (Q14145 322-609)": "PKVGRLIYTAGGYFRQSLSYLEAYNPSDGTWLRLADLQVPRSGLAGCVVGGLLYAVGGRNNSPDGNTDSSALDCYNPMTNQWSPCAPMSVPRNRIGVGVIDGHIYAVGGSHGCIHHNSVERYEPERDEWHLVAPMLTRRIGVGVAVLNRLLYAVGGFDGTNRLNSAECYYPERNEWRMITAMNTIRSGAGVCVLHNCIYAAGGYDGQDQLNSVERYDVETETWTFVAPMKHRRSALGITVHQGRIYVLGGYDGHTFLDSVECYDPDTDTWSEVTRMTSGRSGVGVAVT", "assay": "Differential scanning fluorimetry (DSF) thermal shift assay", "type": "binding", "details": "10 μM compound; Keap1 vehicle control Ti = 61.3 ± 0.3 °C", "experimental": "The DSF assays were carried out according to the previously described method. Solutions of the Keap1 Kelch domain protein (5 μM final concentration) and the small molecule inhibitor (10 μM final concentration) were prepared in DPBS at pH 7.4 (10 % final DMSO concentration, 20 μL final volume) in an Eppendorf tube. The solution was centrifuged briefly (1500 rpm, 60 s) to remove any particulates and mix the samples, followed by a 30 min incubation at RT. The samples were loaded into Tycho NT.6 capillaries (Nanotemper) in triplicate and positioned in the […] instrument. […] The fluorescence ratio vs temperature was plotted and the inflection temperature (Ti) of the profile was recorded. Changes in inflection (ΔTi) for the inhibitors were calculated by subtracting the mean Ti of the Keap1 sample plus vehicle from the mean Keap1 plus binder value (n = 3)."}, "[2]": {"test_system": "Nrf2 target genes", "assay": "Gene expression analysis (real-time quantitative PCR) in Hepa1c1c7 cells", "type": "cell-based, mouse", "details": "16-h incubation, 10 μM or 50 μM", "experimental": "Hepa1c1c7 cells (5 × 10^5 cells/well, n = 3) were seeded on six-well plates, and on the next day were treated with compound 25 (10 μM or 50 μM) or vehicle (0.1 % DMSO) for 16 h. After two washes with PBS, the cells were lysed. RNA was then extracted, cDNA was synthesised, and the levels of mRNA for each gene were determined by real-time quantitative PCR (TaqMan). The levels of 18S mRNA in each sample were used as a control for normalization."}, "[3]": {"assay": "EXSY NMR of cis/trans rotamer exchange", "type": "physicochemical", "from_the_text": "A series of pseudo-3D EXSY spectra were then acquired for compound 25 in D2O at temperatures of 280, 290, 300, 310 and 320 K (700 MHz, pulse sequence adapted from noesygpphpr and available on request, 1 s recycle delay, 13 mixing times from 5 to 1000 ms, acquisition times of 367 ms and 52 ms and spectra widths of 16 ppm and 3.5 ppm for direct and indirect dimensions respectively). Spectra were processed with linear prediction and cosine-squared window functions. For each temperature, methoxy singlet resonances were selected for analysis, and the intensities of the diagonal ( IAA and IBB ) and cross peaks ( IAB and IBA ) were fitted to Eq. (1) as a function of the mixing time, T, to determine the exchange rates kAB and kBA [41]. The ‘A’ state was defined to be the more shielded signal. Reported uncertainties were obtained from the non-linear fitting procedure.(1) (IAAIABIBAIBB)(T)=exp[(−R1,A−kABkBAkAB−R1,B−kBA)T]·(IA000IB0)\nExchange rates kAB and kBA were used to determine the relative populations pA=kBA/kAB+kBA and pB=kAB/kAB+kBA and were fitted to van't Hoff and Eyring equations (with unit transmission coefficient) to estimate the enthalpy and entropy changes and enthalpy and entropy of activation."}, "[4]": {"biological_target": "Keap1 (Homo sapiens, UniProt Q14145)", "sequence (Q14145 322-609)": "as above", "assay": "Microscale thermophoresis (MST)"}, "[5]": {"assay": "1D 1H NMR lineshape analysis of cis/trans rotamer exchange"}, "[6]": {"details": "D2O PBS buffer, pH* ~7.4, lineshape"}},
  "note": "Several values for one entry are separate records, joined by “and”; a condition that tells them apart may be missing. Identical values can stand only once.",
  "data": [
    {"smiles": "COc1ccc(S(=O)(=O)N(CC(=O)O)c2ccc(N(Cc3nnn[nH]3)S(=O)(=O)c3ccc(OC)cc3)c3ccccc23)cc1", "note": "[Compound 25, N-(4-((N-((1H-tetrazol-5-yl)methyl)-4-methoxyphenyl)sulfonamido)naphthalen-1-yl)-N-((4-methoxyphenyl)sulfonyl)glycine]", "values": [
      {"measurement": "DSF ΔTi", "setting": "[1]", "value": "19.4 ± 0.4", "unit": "°C"},
      {"measurement": "mRNA levels for Nrf2 target genes (NQO1, HO-1, GstP, Gclm, Gclc)", "setting": "[2]", "value": "increased"},
      {"measurement": "kA→B", "setting": "[3]; D2O PBS buffer, 280 K, EXSY", "value": "0.1633 ± 0.0072", "unit": "s⁻¹"},
      {"measurement": "kA→B", "setting": "[3]; D2O PBS buffer, 290 K, EXSY", "value": "0.541 ± 0.013", "unit": "s⁻¹"},
      {"measurement": "kA→B", "setting": "[3]; D2O PBS buffer, 300 K, EXSY", "value": "1.432 s⁻¹ and 1.432 ± 0.033 s⁻¹"},
      {"measurement": "kA→B", "setting": "[3]; D2O PBS buffer, 310 K, EXSY", "value": "3.26 ± 0.11", "unit": "s⁻¹"},
      {"measurement": "kA→B", "setting": "[3]; D2O PBS buffer, 320 K, EXSY", "value": "8.78 ± 0.39", "unit": "s⁻¹"},
      {"measurement": "ΔHAB", "setting": "[3]; D2O PBS buffer, pH* ~7.4, EXSY", "value": "1.43 ± 0.311", "unit": "kcal/mol"},
      {"measurement": "ΔH^‡AB", "setting": "[3]; D2O PBS buffer, pH* ~7.4, EXSY", "value": "16.6 ± 0.22", "unit": "kcal/mol"},
      {"measurement": "ΔSAB", "setting": "[3]; D2O PBS buffer, pH* ~7.4, EXSY", "value": "16.8 ± 4.4 J/(K·mol)"},
      {"measurement": "ΔS^‡AB", "setting": "[3]; D2O PBS buffer, pH* ~7.4, EXSY", "value": "-11.3 ± 3 J/(K·mol)"},
      {"measurement": "ΔS^‡AB", "setting": "[3]; D2O, EXSY, Eyring (Fig. 4D)", "value": "−11.3 ± 3.0", "unit": "J K^−1 mol^−1"},
      {"measurement": "ΔSAB", "setting": "[3]; D2O, EXSY, van 't Hoff (Fig. 4C)", "value": "16.8 ± 4.4", "unit": "J K^−1 mol^−1"},
      {"measurement": "Kd", "setting": "[4]; 1 nM Keap1", "value": "0.0021 ± 0.0005", "unit": "µM"},
      {"measurement": "Kd", "setting": "[4]; 10 nM Keap1", "value": "0.0243 ± 0.0047", "unit": "µM"},
      {"measurement": "Occupancy of the more shielded state (A)", "setting": "[5]; D2O PBS buffer (pH* ~7.4), 300 K", "value": "0.606 ±0.003"},
      {"measurement": "Occupancy of the more shielded state (A)", "setting": "[5]; D2O PBS buffer (pH* ~7.4), 310 K", "value": "0.586 ±0.001"},
      {"measurement": "Occupancy of the more shielded state (A)", "setting": "[5]; D2O PBS buffer (pH* ~7.4), 320 K", "value": "0.567 ±0.001"},
      {"measurement": "kA→B", "setting": "[5]; D2O PBS buffer, 300 K, lineshape", "value": "1.432 s^-1 and 1.432 ±0.015^c s^-1"},
      {"measurement": "kA→B", "setting": "[5]; D2O PBS buffer, 310 K, lineshape", "value": "3.488 ±0.014^c s^-1"},
      {"measurement": "kA→B", "setting": "[5]; D2O PBS buffer, 320 K, lineshape", "value": "8.912 ±0.024^c s^-1"},
      {"measurement": "ΔHAB", "setting": "[5]; [6]", "value": "1.561 ± 0.00526", "unit": "kcal/mol"},
      {"measurement": "ΔH^‡AB", "setting": "[5]; [6]", "value": "17.4 ± 0.55", "unit": "kcal/mol"},
      {"measurement": "ΔSAB", "setting": "[5]; [6]", "value": "18.19 ± 0.07"},
      {"measurement": "ΔS^‡AB", "setting": "[5]; [6]", "value": "0.65 ± 7.2"},
      {"measurement": "Occupancy of the more shielded state (A)", "setting": "[5]; DMSO, 300 K", "value": "0.486 ±0.003"},
      {"measurement": "kA→B", "setting": "[5]; DMSO, 300 K, lineshape", "value": "3.059 ± 0.029", "unit": "s⁻¹"},
      {"measurement": "Occupancy of the more shielded state (A)", "setting": "[5]; DMSO, 310 K", "value": "0.491 ±0.001"},
      {"measurement": "kA→B", "setting": "[5]; DMSO, 310 K, lineshape", "value": "3.982 ± 0.007", "unit": "s⁻¹"},
      {"measurement": "Occupancy of the more shielded state (A)", "setting": "[5]; DMSO, 320 K", "value": "0.496 ±0.0005"},
      {"measurement": "kA→B", "setting": "[5]; DMSO, 320 K, lineshape", "value": "8.749 ± 0.012", "unit": "s⁻¹"},
      {"measurement": "ΔH^‡AB", "setting": "[5]; DMSO, lineshape, Eyring", "value": "11.5 ± 3.11", "unit": "kcal/mol"},
      {"measurement": "ΔS^‡AB", "setting": "[5]; DMSO, lineshape, Eyring", "value": "-79 ± 41"},
      {"measurement": "ΔSAB", "setting": "[5]; DMSO, lineshape, van't Hoff", "value": "-5.26 ± 0.17"}
    ]}
  ]
}
